Assay results from publication PMC9414972, “α-Glucosidase and α-Amylase Inhibitory Potentials of Quinoline–1,3,4-oxadiazole Conjugates Bearing 1,2,3-Triazole with Antioxidant Activity, Kinetic Studies, and Computational Validation” (Pharmaceuticals, 2022).
pIC50: −log10 of the molar value.

Assays:
[1] = Ferric reducing antioxidant power (FRAP); details: ferric reducing antioxidant power
Procedure: FRAP is a ferric (Fe^3+) to ferrous (Fe^2+) ions reduction assay that measures a compound’s electron-donating capacity, i.e., the antioxidant’s reducing power.
The mixture was incubated at 50 °C for 20 min, followed by acidification with 100 μL trichloroacetic acid (10%). After centrifugation at 3500 rpm for 10 min, 200 μL of the supernatant was transferred into another test tube containing 200 μL of distilled water and 0.8 mL of FeCl3 (0.1%). Finally, the absorbance was read at 700 nm, and the total reductive antioxidant power was calculated thus: Ferric reducing antioxidant power (%)=Absorbance of compound/Absorbance of 500µM gallic acid×100

α-glucosidase [2] = molecular target: T1, α-glucosidase (Saccharomyces cerevisiae, UniProt P38158); experiment: Mode of α-glucosidase inhibition (enzyme kinetics, Lineweaver–Burk); assay type: biochemical; details: Lineweaver–Burk plots; inhibitor 0, 75, 150, 300 µM; pNPG
T1 construct: purchased Merck
Description: Understanding a drug’s mode of inhibiting its target is crucial to improve the drug’s activity profile and target specificity. Although orthosteric inhibition, in which the ligand binds at the target’s active site, dominates among currently available drugs, allosteric inhibitors (i.e., drugs binding at regions […] the active site) are desirable due to their reduced vulnerability to active site mutation or to displacement through native substrate overload at the active site. Accordingly, the mode of α-glucosidase inhibition was investigated for promising compounds 4b, 4i, 4j, 4k, 4l, 12k, and 12m, using a time-dependent para-nitrophenyl-[…] (pNPG) assay; the results are presented as Lineweaver–Burk plots (Figure 4). […] Conceivably, this can result in decreased systemic glucose concentration thus alleviating postprandial hyperglycemia and its associated complications.
The mode of inhibition of α-glucosidase of the 4b, 4i, 4j, 4k, 4l, 12k, and 12m compounds was determined using the method described by Kazeem et al. 2013, with modifications. Briefly, 50 µL of the 4b, 4i, 4j, 4k, 4l, 12k, and 12m compounds at (0 µM, 75 µM, 150 µM and 300 µM) concentrations were preincubated with 100 µL of α-glucosidase solution for 10 min at 25 °C in one set of tubes. In another set of tubes, α-glucosidase was preincubated with 50 µL of phosphate buffer (pH 6.9). 25 µL of pNPG at increasing concentrations (0.125–4.0 mg/mL) was added to both sets of solution to start the reaction. Immediately, the absorbance of the resulting solution was monitored for 2 min in a spectrophotometer at 405 nm. The amount of 4-nitrophenol released was determined from a 4-nitrophenol standard curve and then converted to reaction velocities.

[3] = Nitric oxide (NO) scavenging activity; details: nitric oxide radical scavenging, 37 °C, 2 h
Procedure: The screening of the present compound series for NO radical scavenging activity (Table 2) identified excellent NO scavengers.
The antioxidant capacity of the compounds to scavenge nitric oxide radicals was determined using a modified version of the protocol by Kurian et al.. Briefly, 250 μL of sodium nitroprusside (10 mM) prepared in sodium phosphate buffer (pH 7.4) was added to 500 μL of the compound solution (62.5–500 μM) or distilled water (control). The resulting solution was incubated at 37 °C for 2 h. Then, 250 μL of Griess reagent was added to the reaction mixture before the absorbance was measured at 546 nm. The nitric oxide scavenging activity of the compounds was calculated with the formula: Nitric oxide scavenging (%)=1−Absorbance of compound/Absorbance of control×100

[4] = DPPH radical scavenging activity; details: DPPH radical scavenging, 30 min, 25 °C
Procedure: The DPPH assay is used conventionally to quantify a compound’s ability to trap free radicals.
The compounds were evaluated for their ability to scavenge stable DPPH radicals, using a modification of the method by Turkoglu et al..

α-glucosidase [5] = molecular target: T1, α-glucosidase; experiment: biochemical; details: pNPG substrate, pH 6.8, 37 °C; read-out: IC50 α-Glucosidase
Procedure: The α-glucosidase inhibitory activity was evaluated using a previous method with slight modifications.

[6] = molecular target: T2, porcine pancreatic amylase (Sus scrofa, UniProt P00690); experiment: α-Amylase inhibitory activity (starch/DNS); assay type: biochemical; details: porcine pancreatic amylase, starch, pH 6.9, 25 °C; read-out: IC50 α-Amylase
T2 construct: purchased Merck
T2 sequence (P00690 16-511): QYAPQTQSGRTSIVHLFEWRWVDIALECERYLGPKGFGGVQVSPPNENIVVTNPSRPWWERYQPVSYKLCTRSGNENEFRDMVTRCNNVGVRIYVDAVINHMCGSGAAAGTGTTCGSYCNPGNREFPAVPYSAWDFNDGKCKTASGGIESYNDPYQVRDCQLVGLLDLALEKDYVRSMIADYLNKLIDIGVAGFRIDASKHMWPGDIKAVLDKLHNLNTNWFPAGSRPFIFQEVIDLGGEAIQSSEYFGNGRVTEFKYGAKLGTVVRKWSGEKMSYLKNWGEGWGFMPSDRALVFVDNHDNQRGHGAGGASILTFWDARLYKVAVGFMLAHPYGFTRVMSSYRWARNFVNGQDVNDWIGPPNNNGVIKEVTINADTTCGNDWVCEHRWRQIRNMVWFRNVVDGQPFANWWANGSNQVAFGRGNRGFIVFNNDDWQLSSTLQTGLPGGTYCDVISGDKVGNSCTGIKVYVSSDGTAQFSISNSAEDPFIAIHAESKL
Procedure: α-Amylase inhibitory activity was determined according to Ibitoye et al. with slight modifications. […] The reaction in the mixture was terminated with a 1 mL dinitrosalicylate reagent before boiling for 10 min. The cooled mixture was diluted with 5 mL distilled water, and the absorbance was read at 540 nm. The inhibitory activity was calculated using the formula below: % Inhibition=1−Absorbance of compound/Absorbance of control×100

T1 sequence (P38158 whole entry): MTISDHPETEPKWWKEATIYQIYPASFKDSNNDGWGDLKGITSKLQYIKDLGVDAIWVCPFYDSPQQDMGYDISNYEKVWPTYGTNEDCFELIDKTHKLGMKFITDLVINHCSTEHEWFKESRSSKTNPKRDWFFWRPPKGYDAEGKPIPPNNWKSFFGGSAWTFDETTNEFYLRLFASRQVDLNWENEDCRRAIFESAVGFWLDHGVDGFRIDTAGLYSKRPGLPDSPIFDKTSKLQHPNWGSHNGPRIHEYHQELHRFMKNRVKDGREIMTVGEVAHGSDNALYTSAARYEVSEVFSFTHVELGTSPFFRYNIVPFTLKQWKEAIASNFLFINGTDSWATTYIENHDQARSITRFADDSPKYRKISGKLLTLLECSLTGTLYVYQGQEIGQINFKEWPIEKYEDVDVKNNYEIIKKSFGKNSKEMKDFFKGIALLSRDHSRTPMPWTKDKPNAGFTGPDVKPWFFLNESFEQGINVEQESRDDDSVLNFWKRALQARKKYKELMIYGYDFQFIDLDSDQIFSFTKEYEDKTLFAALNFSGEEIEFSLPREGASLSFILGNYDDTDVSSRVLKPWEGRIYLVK

Structure (SMILES): CCCSc1nnc(COc2cccc3cccnc23)o1 [4b, 2-(Propylthio)-5-[(quinolin-8-yloxy)methyl]-1,3,4-oxadiazole]
- pIC50 [1]: < 3.30
- mode of α-glucosidase inhibition (α-glucosidase [2]): non-competitive
- pIC50 [3]: < 3.30
- pIC50 [4]: 4.11
- pIC50 (α-glucosidase [5]): 4.60
- pIC50 [6]: < 3.30

Structure (SMILES): BrCCCCCSc1nnc(COc2cccc3cccnc23)o1 [4i, 2-[(5-Bromopentyl)thio]-5-[(quinolin-8-yloxy)methyl]-1,3,4-oxadiazole]
- pIC50 [1]: 4.64
- mode of α-glucosidase inhibition (α-glucosidase [2]): non-competitive
- pIC50 [3]: 3.70
- pIC50 [4]: 4.26
- pIC50 (α-glucosidase [5]): 4.80
- pIC50 [6]: < 3.30

Structure (SMILES): c1ccc(CSc2nnc(COc3cccc4cccnc34)o2)cc1 [4j, 2-(Benzylthio)-5-[(quinolin-8-yloxy)methyl]-1,3,4-oxadiazole]
- pIC50 [1]: < 3.30
- mode of α-glucosidase inhibition (α-glucosidase [2]): non-competitive
- pIC50 [3]: 3.40
- melting point: 75.3 to 79.8 °C
- pIC50 [4]: 4.26
- pIC50 (α-glucosidase [5]): 4.57
- pIC50 [6]: < 3.30

Structure (SMILES): Fc1ccc(Cn2cc(CSc3nnc(COc4cccc5cccnc45)o3)nn2)cc1 [12e, 2-{[(1-(4-Fluorobenzyl)-1H-1,2,3-triazol-4-yl)methyl]thio}-5-[(quinolin-8-yloxy)methyl]-1,3,4-oxadiazole]
- pIC50 [1]: < 3.30
- pIC50 [3]: < 3.30
- melting point: 96 to 101 °C
- pIC50 [4]: 4.03
- pIC50 (α-glucosidase [5]): 4.41
- pIC50 [6]: < 3.30

Structure (SMILES): Brc1ccc(Cn2cc(CSc3nnc(COc4cccc5cccnc45)o3)nn2)cc1 [12f, 2-{[(1-(4-Bromobenzyl)-1H-1,2,3-triazol-4-yl)methyl]thio}-5-[(quinolin-8-yloxy)methyl]-1,3,4-oxadiazole]
- pIC50 [1]: < 3.30
- pIC50 [3]: 3.32
- melting point: 78 to 82 °C
- pIC50 [4]: 4.04
- pIC50 (α-glucosidase [5]): 4.25
- pIC50 [6]: < 3.30

Structure (SMILES): O=[N+]([O-])c1ccc(Cn2cc(CSc3nnc(COc4cccc5cccnc45)o3)nn2)cc1 [12g, 2-{[(1-(4-Nitrobenzyl)-1H-1,2,3-triazol-4-yl)methyl]thio}-5-[(quinolin-8-yloxy)methyl]-1,3,4-oxadiazole]
- pIC50 [1]: < 3.30
- pIC50 [3]: 5.52
- melting point: 100 to 106 °C
- pIC50 [4]: 4.09
- pIC50 (α-glucosidase [5]): 4.33
- pIC50 [6]: < 3.30

Structure (SMILES): Clc1cccc(Cn2cc(CSc3nnc(COc4cccc5cccnc45)o3)nn2)c1 [12h, 2-{[(1-(3-Chlorobenzyl)-1H-1,2,3-triazol-4-yl)methyl]thio}-5-[(quinolin-8-yloxy)methyl]-1,3,4-oxadiazole]
- pIC50 [1]: < 3.30
- pIC50 [3]: < 3.30
- melting point: 78 to 84 °C
- pIC50 [4]: 4.04
- pIC50 (α-glucosidase [5]): 4.20
- pIC50 [6]: < 3.30

Structure (SMILES): Clc1ccc(Cn2cc(CSc3nnc(COc4cccc5cccnc45)o3)nn2)c(Cl)c1 [12i, 2-{[(1-(2,4-Dichlorobenzyl)-1H-1,2,3-triazol-4-yl)methyl]thio}-5-[(quinolin-8-yloxy)methyl]-1,3,4-oxadiazole]
- pIC50 [1]: < 3.30
- pIC50 [3]: < 3.30
- melting point: 124 to 130 °C
- pIC50 [4]: 4.02
- pIC50 (α-glucosidase [5]): 4.37
- pIC50 [6]: < 3.30

Structure (SMILES): Clc1ccc(-n2cc(CSc3nnc(COc4cccc5cccnc45)o3)nn2)cc1 [12l, 2-{[(1-(4-Chlorophenyl)-1H-1,2,3-triazol-4-yl)methyl]thio}-5-[(quinolin-8-yloxy)methyl]-1,3,4-oxadiazole]
- pIC50 [1]: < 3.30
- pIC50 [3]: < 3.30
- melting point: 132 to 136 °C
- pIC50 [4]: 4.09
- pIC50 (α-glucosidase [5]): 4.42
- pIC50 [6]: < 3.30

Structure (SMILES): Brc1ccc(-n2cc(CSc3nnc(COc4cccc5cccnc45)o3)nn2)cc1 [12n, 2-{[(1-(4-Bromophenyl)-1H-1,2,3-triazol-4-yl)methyl]thio}-5-[(quinolin-8-yloxy)methyl]-1,3,4-oxadiazole]
- pIC50 [1]: < 3.30
- pIC50 [3]: < 3.30
- melting point: 126 to 132 °C
- pIC50 [4]: 4.04
- pIC50 (α-glucosidase [5]): 4.45
- pIC50 [6]: < 3.30

Structure (SMILES): O=[N+]([O-])c1ccc(-n2cc(CSc3nnc(COc4cccc5cccnc45)o3)nn2)cc1 [12o, 2-{[(1-(4-Nitrophenyl)-1H-1,2,3-triazol-4-yl)methyl]thio}-5-[(quinolin-8-yloxy)methyl]-1,3,4-oxadiazole]
- pIC50 [1]: < 3.30
- pIC50 [3]: < 3.30
- melting point: 150 to 156 °C
- pIC50 [4]: 4.05
- pIC50 (α-glucosidase [5]): 4.42
- pIC50 [6]: < 3.30

Structure (SMILES): Cc1ccc(-n2cc(CSc3nnc(COc4cccc5cccnc45)o3)nn2)cc1 [12p, 2-[(Quinolin-8-yloxy)methyl]-5-{[(1-(p-tolyl)-1h-1,2,3-triazol-4-yl)methyl]thio}-1,3,4-oxadiazole]
- pIC50 [1]: < 3.30
- pIC50 [3]: < 3.30
- melting point: 78 to 80 °C
- pIC50 [4]: 4.02
- pIC50 (α-glucosidase [5]): 4.36
- pIC50 [6]: 3.31

Structure (SMILES): COc1ccc(-n2cc(CSc3nnc(COc4cccc5cccnc45)o3)nn2)cc1 [12q, 2-{[(1-(4-Methoxyphenyl)-1H-1,2,3-triazol-4-yl)methyl]thio}-5-[(quinolin-8-yloxy)methyl]-1,3,4-oxadiazole]
- pIC50 [1]: < 3.30
- pIC50 [3]: < 3.30
- melting point: 122 to 128 °C
- pIC50 [4]: 4.01
- pIC50 (α-glucosidase [5]): 4.21
- pIC50 [6]: < 3.30

Structure (SMILES): Clc1ccc(-n2cc(CSc3nnc(COc4cccc5cccnc45)o3)nn2)c(Cl)c1 [12r, 2-{[(1-(2,4-Dichlorophenyl)-1H-1,2,3-triazol-4-yl)methyl]thio}-5-[(quinolin-8-yloxy)methyl]-1,3,4-oxadiazole]
- pIC50 [1]: < 3.30
- pIC50 [3]: < 3.30
- melting point: 112 to 116 °C
- pIC50 [4]: 4.00
- pIC50 (α-glucosidase [5]): 4.31
- pIC50 [6]: < 3.30

Structure (SMILES): Clc1cccc(Cl)c1-n1cc(CSc2nnc(COc3cccc4cccnc34)o2)nn1 [12s, 2-{[(1-(2,6-Dichlorophenyl)-1H-1,2,3-triazol-4-yl)methyl]thio}-5-[(quinolin-8-yloxy)methyl]-1,3,4-oxadiazole]
- pIC50 [1]: < 3.30
- pIC50 [3]: < 3.30
- melting point: 113 to 118 °C
- pIC50 [4]: 4.07
- pIC50 (α-glucosidase [5]): 4.41
- pIC50 [6]: < 3.30

Structure (SMILES): Cc1cccc(C)c1-n1cc(CSc2nnc(COc3cccc4cccnc34)o2)nn1 [12t, 2-{[(1-(2,6-Dimethylphenyl)-1H-1,2,3-triazol-4-yl)methyl]thio}-5-[(quinolin-8-yloxy)methyl]-1,3,4-oxadiazole]
- pIC50 [1]: < 3.30
- pIC50 [3]: < 3.30
- melting point: 110 to 116 °C
- pIC50 [4]: 4.05
- pIC50 (α-glucosidase [5]): 4.36
- pIC50 [6]: < 3.30
